Paper PMC12027554, “Inhibition of ABCG2 by SCO-101 Enhances Chemotherapy Efficacy in Cancer” (International Journal of Molecular Sciences, 2025)

How the values were obtained:
HT29SN-38 cells = experiment: Colony formation assay; type: cell-based, human; settings: 7 days
Procedure: Cells were trypsinized and counted, and 400 cells/well were seeded in 24-well plates. Drug treatments were performed 24 h after seeding for a total duration of 6 (LoVo) or 7 (HT29) days. Next, media were removed, and cells were washed with PBS and stained with 250 μL Crystal Violet solution for 10 min. Crystal Violet was then removed, plates rinsed with tap water, images captured, and colonies counted using the ImageJ software (version 1.54p). Survival fraction and plating efficiency (PE) were calculated as follows: Survival Fraction=number of colonies/number of cells plated ∗ PE PE=number of colonies formed in control/number of cells seeded

MDR1/ABCB1 = MDR1/ABCB1 (Homo sapiens, UniProt P08183); experiment: Efflux transporter inhibition, vesicular uptake into inside-out membrane vesicles (ABCB1); type: biochemical; settings: 1 μM N-methyl-quinidine
Procedure: Efflux transporter inhibition was evaluated by measuring vesicular uptake into inside-out membrane vesicles (SOLVO biotechnology, Budapest, Hungary) expressing a single human ABC transporter (0.67 mg/mL ABCB1; 0.67 mg/mL ABCC2; 0.33 mg/mL ABCG2 membrane protein) of a probe substrate (1 μM N-methyl-quinidine for ABCB1; 100 μM 5(6)-carboxy-2′,7′-dichlorofluorescein for ABCC2; 1 μM Eestrone-3-sulfate for ABCG2) in the presence of SCO-101 with and without ATP (4 mM) in 96-well plate format. Control solvent and control inhibitors (4–60 μM verapamil for […]; 1–15 μM sulfasalazine for ABCG2; 5.5–150 μM benzbromarone for ABCC2) were incubated in parallel. Vesicular uptake was conducted at 37 °C in incubation buffer (10 mM Tris-HCl, pH 7.4, 10 mM MgCl2, 250 mM sucrose) and terminated after 1 min (ABCB1 and ABCG2) or 5 min (ABCC2) by adding ice-cold washing buffer (10 mM Tris-HCl, pH 7.4, 100 mM NaCl, 250 mM sucrose). […] Probe quantification was conducted using LC-MS/MS peak areas (solvent control with ATP − AMP = 100%). […] The remaining transporter activity % was calculated according to the formula below, and fitting was performed using GraphPad Prism: A%=AATP,sample−AAMP,sample/AATP,solvent−AAMP,solvent

SCH cells = experiment: Cell viability assay (CellTiter-Glo), SCH; type: cell-based; settings: 96 h
Procedure: (§1) Cells were seeded at a density of 0.2–1 × 10^4 cells/well into 96-well plates. One day after seeding, treatments were performed in triplicate for 72 h, or as otherwise indicated in the relevant panel/figure legend and kept at 37 °C/5% CO2. Growth medium alone (“untreated” cells) or DMSO was used as a control.
(§2) For SCH, SNU-5, and MKN45 cells, 50 μL of CellTiter-Glo® Reagent (Promega; Madison, WI, USA) was added to each well at the end of the treatments. The content was mixed for 5 min to facilitate cell lysis and plates incubated at room temperature for 10 min to stabilize luminescent signals, which were then recorded using an EnVision Multi Label Reader (PerkinElmer; Waltham, MA, USA).
(§3) Background values were subtracted prior to further analysis. The percentage of cell viability was expressed as relative values versus untreated cells as determined by the various assays. EC50/IC50 values were calculated using GraphPad Prism (v10.4.1) and the in-built non-linear regression [log (inhibitor) vs. response—variable slope (four parameters)] calculation. […] Synergy scores were calculated using the ZIP model, which takes the advantages of both the Loewe additivity and the Bliss independence models, aiming at a systematic assessment of various types of drug interaction patterns that may arise in a high-throughput drug combination screening.

SNU-5 cells = experiment: Cell viability assay (CellTiter-Glo), SNU-5; type: cell-based; settings: Homo sapiens, 96 h
Procedure: as §1, §2, §3

PANC-1MX100 cells = experiment: Cell viability assay, mitoxantrone-resistant PANC-1; type: cell-based, human; settings: SCO-101 20 µM, 72 h
Procedure: as §1
For MTT assays, media were replaced at the final timepoint with 100 μL of 1:10 MTT reagent (0.5 mg/mL in PBS) diluted in growth medium, and plates were incubated for 3 h. A total of 100 μL/well of stop buffer (50 g Sodium Dodecyl Sulfate, 245 mL ddH2O, 5 mL 1N HCl) was added and plates incubated for 24 h to let colored formazan crystals develop. Optical densities (ODs) were measured with a PowerWave^TM Microplate spectrophotometer (BioTek, Winooski, VT, USA) at 570 nm and 670 nm (background).
Background values were subtracted prior to further analysis. The percentage of cell viability was expressed as relative values versus untreated cells as determined by the various assays. EC50/IC50 values were calculated using GraphPad Prism (v10.4.1) and the in-built non-linear regression [log (inhibitor) vs. response—variable slope (four parameters)] calculation. For determination of synergy scores, the online tool SynergyFinder+ (https://synergyfinder.org access date 15 February 2025) was employed following 4 × 4- or 6 × 6-matrix dose-escalation cell viability experiments. […]

[1] = design: method as in earlier work; settings: oral SCO-101 in combination with FOLFIRI; cited from earlier work

Chain of MDR1/ABCB1 (P08183 whole entry): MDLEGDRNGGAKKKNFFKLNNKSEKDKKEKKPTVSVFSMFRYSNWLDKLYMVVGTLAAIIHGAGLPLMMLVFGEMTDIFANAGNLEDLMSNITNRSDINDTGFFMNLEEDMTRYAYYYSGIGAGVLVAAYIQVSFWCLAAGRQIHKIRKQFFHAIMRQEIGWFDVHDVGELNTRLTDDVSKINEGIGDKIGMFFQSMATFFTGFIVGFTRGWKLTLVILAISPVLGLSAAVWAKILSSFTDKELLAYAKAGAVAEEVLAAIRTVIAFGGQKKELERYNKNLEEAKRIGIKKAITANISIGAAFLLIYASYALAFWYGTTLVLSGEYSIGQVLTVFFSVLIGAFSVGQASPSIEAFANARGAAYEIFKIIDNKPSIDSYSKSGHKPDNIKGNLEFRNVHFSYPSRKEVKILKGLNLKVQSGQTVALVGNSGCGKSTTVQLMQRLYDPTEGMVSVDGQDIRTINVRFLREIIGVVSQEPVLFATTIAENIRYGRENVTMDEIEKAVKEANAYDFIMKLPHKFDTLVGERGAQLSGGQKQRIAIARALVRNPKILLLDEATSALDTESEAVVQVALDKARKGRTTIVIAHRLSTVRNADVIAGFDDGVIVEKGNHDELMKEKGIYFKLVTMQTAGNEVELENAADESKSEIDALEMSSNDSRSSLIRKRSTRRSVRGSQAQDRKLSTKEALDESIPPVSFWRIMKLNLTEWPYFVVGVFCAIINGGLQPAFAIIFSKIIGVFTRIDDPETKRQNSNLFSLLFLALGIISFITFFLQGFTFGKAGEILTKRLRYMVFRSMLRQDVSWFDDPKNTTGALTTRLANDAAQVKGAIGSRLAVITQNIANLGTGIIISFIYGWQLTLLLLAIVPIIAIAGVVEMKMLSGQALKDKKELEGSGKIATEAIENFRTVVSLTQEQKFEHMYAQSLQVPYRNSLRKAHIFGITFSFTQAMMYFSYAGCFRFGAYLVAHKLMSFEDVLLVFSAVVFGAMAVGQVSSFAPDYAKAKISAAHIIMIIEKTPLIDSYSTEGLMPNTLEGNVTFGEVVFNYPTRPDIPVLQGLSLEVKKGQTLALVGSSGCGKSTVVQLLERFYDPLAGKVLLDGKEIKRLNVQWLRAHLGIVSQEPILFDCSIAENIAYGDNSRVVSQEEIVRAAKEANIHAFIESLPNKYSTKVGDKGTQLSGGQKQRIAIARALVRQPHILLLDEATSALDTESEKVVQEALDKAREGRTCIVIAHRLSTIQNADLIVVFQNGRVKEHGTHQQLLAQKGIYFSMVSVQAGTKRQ

O=C(Nc1cc(C(F)(F)F)cc(C(F)(F)F)c1)Nc1ccc(Br)cc1-c1nnn[nH]1 [SCO-101, N-[4-Bromo-2-(1H-1,2,3,4-tetrazol-5-yl)phenyl]-N′-[3,5-bis(trifluoromethyl)phenyl]urea]
colony formation ability (survival fraction) (HT29SN-38 cells; 10 µM SCO-101 alone): did not affect | colony formation ability, SCO-101 in combination with SN-38 (HT29SN-38 cells; SCO-101 0–20 µM + SN-38 0.01 μM, vs SCO-101 alone): significant reduction | IC50 (MDR1/ABCB1): 16.1 µM | IC50 (SCH cells): > 50 µM | IC50 (SNU-5 cells): > 50 µM | cell viability, SCO-101 combined with mitoxantrone or SN-38 (PANC-1MX100 cells): re-sensitized | safety [1]: safe
